# According to US20230393170A1, “IN SITU MECHANICAL CHARACTERIZATION OF A SAMPLE STRAIN” (BOARD OF REGENTS OF THE UNIVERSITY OF NEBRASKA, priority 2020, published 2023):
# “Also recorded” adds a separate entry of the source.
# System: A431 cell pair cell-cell junction
# Test: Displacement-controlled stretch test of a single cell pair treated with contractility modulators
# Assay type: cell-based
# From the text: To apply strain to the cell-cell junction, the test platform was placed with deposited cells under the AFM integrated with an inverted microscope. An AFM probe with a through-hole drilled at the front end using a focused ion beam (FIB) is positioned above the micropillar on Island 2 and then lowered to capture it within the through-hole. With this, displacement was applied and displacement rates were tried to investigate the mechanical behavior of the cell-cell junction with obtained stress-strain curves (as discussed below with reference to FIG. 12).
# The cell pair was treated with cellular contractility modulators, RhoA Activator I. CN01, and myosin II inhibitor: blebbistatin (Bleb), to examine the impact of actomyosin activity on the mechanical behavior of the cell pair under mechanical stress. Stress-strain curves collected at 0.5% s^−1 strain rate show a clear contrast between samples treated with CN01, Bleb, and DMSO control. […] The stress-strain curves were then analyzed using the constitutive model. […] The increase (decrease) in both η and E2 by CN01 (Bleb) is consistent with the enhanced (reduced) stress fiber formation.
# Zyxin staining was performed to visualize the focal adhesion points between cells and the structure. After fixing the cells (see above), the anti-zyxin antibody (Sigma) with a ratio of 1:250 with PBS was added to the sample and refrigerated for 24 hours. The solution was then removed, and the sample was washed with PBS. PBS was replaced by Goat anti-Rabbit IgG (H+L), Superclonal™ Recombinant Secondary Antibody, Alexa Fluor 647 (Thermofisher) and incubated for 1 hour at 37° C. Finally, the sample was washed with PBS and the actin and nuclei staining protocol were performed. Pharmacological treatments modulating cell contractility included 3 μM blebbistatin (Bleb) (Sigma-Aldrich) for 2 h and 1 unit/ml Rho Activator I (CN01; Cytoskeleton, Inc., Denver, CO) for 30 min.
# A modified version of MATLAB digital image correlation (DIC) was used to analyze the frames from the stretch test. The first frame was considered as the reference and the rest of the frames were compared to the reference frame to calculate the displacement of each island. A region of interest with markers within the region was defined for both islands. Then, the MATLAB code calculated the markers' new coordinates with respect to the first frame, from which the displacement of the islands was calculated. The force is defined by the Island 1 displacement multiplied by its stiffness, and the stress is acquired by dividing the force by the junction cross-section (approximately 120 μm^2). The strain is then calculated as the difference between the islands' displacements divided by the cell-cell junction's initial length (approximately 20 μm).
# Each stretch test was recorded with a screen recorder software (Camtasia) and the movie was divided into frames that were analyzed with a customized DIC-based program to calculate each island's movement. In this method, a region of interest is defined and, within this region, a few markers are placed. The higher the number of markers, the better the resolution of the calculated displacement is. Then, when the coordinates of these markers change, a corresponding red marker appears (FIGS. 12A and 12B). In the first frame, both initial and displaced positions of markers are completely overlapped so just red markers are shown. […] The strain is calculated by dividing the difference of both islands' displacements by the initial length […]. […]
# [1] = 0.5% s^-1 strain rate, fit of stress-strain curves
smiles,measurement,setting,value
"Cc1ccc2c(c1)C(=O)C1(O)CCN(c3ccccc3)C1=N2 (centres unmarked) [Bleb, blebbistatin]",rupture of the cell-cell adhesion junction,0.5% s^-1 (100 nm/s) strain rate,ruptured at the initial stages
same,overall stress level compared with controls,"0.5% s^-1 strain rate (100 nm/s), CN01 1 unit/ml 30 min, Bleb 3 μM 2 h, vs DMSO control",reduces the stress accumulation; also recorded: stress level was low compared to other conditions
same,"Membrane stiffness, E1 (MSLS model fit)",[1],stays the same for all conditions
same,"elastic moduli of the intracellular components, E2 (MSLS model fit)",[1],reduces them
same,"viscosity, η (MSLS model fit)",[1],reduces them
